One test concerns the target KIT kinase (Homo sapiens (Human), UniProt P10721). Put plainly: Competition binding assay (Kd), KIT. As to conditions: competition binding assay. The method in brief: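 Kd derived from eleven-point threefold serial dilutions of compound competing with bead-bound ligand for kinase; bound kinase eluted and measured by quantitative PCR. Kinase supplied either as a T7 phage fusion or expressed in HEK-293 cells with a DNA tag; DMSO served as control.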

For another test, the target named is FLT3-ITD (Homo sapiens (Human), UniProt P36888, INS600HVDFREYEYD). The experiment in a line: pFLT3 MSD assay, Ba/F3 FLT3-ITD. The class given is cell-based. The settings on record: Ba/F3 FLT3-ITD cells, 2 hours, read-out: BaF3-FLT3-ITD pFlt3 IC50.

Structures can show the parent of a compound that is named as a salt. Where only a bound is given, the exact number is not on record here.

The term Kd denotes the concentration at which binding is half-saturated. The low end stands for a tighter complex, the high end for a looser complex. In general, IC50 refers to the point on the concentration scale where inhibition reaches its midpoint.

KIT kinase, sequence (P10721 26-976): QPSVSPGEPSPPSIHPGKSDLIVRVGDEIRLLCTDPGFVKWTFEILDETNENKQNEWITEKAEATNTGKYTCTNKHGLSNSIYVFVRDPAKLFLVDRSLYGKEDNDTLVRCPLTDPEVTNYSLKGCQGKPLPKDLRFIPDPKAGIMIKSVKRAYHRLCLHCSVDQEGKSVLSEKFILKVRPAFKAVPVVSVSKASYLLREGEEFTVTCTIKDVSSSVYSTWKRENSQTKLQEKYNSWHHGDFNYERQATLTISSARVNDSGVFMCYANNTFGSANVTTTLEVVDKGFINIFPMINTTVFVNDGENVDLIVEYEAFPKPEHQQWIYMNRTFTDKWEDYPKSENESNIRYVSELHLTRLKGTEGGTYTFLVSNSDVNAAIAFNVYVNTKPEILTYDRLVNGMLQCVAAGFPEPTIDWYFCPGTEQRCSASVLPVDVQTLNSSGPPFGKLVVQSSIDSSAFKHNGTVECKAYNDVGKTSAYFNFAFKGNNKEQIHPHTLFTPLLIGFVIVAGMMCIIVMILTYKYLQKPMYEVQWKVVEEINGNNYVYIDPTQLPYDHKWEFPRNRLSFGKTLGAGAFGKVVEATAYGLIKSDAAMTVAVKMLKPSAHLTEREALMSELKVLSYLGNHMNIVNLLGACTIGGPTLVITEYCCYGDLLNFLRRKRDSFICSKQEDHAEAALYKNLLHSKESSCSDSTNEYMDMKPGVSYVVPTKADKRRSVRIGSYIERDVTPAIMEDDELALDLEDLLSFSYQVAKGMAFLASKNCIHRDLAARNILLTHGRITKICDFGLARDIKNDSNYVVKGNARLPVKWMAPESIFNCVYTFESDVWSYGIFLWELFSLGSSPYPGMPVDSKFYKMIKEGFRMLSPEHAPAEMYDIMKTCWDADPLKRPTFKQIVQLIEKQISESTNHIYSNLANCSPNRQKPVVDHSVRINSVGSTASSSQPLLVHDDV
FLT3-ITD, sequence (P36888 other isoform, or with tags, fused parts or gaps limits assumed, stated change not applied): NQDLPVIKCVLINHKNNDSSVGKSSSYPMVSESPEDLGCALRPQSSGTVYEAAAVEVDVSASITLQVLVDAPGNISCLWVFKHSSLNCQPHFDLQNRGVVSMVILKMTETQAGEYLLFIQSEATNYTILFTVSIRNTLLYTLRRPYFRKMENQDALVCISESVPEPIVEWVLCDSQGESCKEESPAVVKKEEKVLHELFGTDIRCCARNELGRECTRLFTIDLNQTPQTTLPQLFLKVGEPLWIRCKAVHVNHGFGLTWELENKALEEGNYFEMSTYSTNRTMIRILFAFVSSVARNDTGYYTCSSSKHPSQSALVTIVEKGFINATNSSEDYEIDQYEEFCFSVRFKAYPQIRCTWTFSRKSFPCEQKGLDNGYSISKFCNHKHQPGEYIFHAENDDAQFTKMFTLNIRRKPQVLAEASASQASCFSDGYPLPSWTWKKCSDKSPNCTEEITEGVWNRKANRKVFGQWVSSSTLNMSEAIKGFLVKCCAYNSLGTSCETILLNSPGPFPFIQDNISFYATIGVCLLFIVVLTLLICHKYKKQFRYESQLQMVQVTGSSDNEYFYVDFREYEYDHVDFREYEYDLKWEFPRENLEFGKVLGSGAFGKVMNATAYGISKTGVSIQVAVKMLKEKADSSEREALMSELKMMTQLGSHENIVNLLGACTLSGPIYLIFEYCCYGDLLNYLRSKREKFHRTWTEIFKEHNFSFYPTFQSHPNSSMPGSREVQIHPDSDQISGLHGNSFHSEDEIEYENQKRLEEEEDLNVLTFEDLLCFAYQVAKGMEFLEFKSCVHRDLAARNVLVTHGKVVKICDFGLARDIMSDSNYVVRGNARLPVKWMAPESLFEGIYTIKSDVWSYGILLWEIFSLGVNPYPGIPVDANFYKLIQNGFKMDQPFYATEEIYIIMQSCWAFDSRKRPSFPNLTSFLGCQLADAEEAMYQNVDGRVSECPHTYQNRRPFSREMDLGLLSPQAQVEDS
Protocol for FLT3-ITD: In certain other embodiments, the compounds disclosed herein are tested in a FLT3 phosphorylation assay to determine their cellular potency against one or both of FLT3-ITD and FLT3 tyrosine kinase domain mutants. In certain embodiments, the FLT3 phosphorylation assay assesses the potency of compounds as FLT3 inhibitors by measuring the reduction in formation of phosphorylated FLT3 in the cells.
Gene constructs containing the human FLT3 sequences FLT3-ITD, FLT3-ITD-F691L, FLT3-ITD-D835V and FLT3-D835V were synthesized by reverse translation of the human protein sequences, with codons optimized for mammalian expression. Sequence of the internal tandem duplication (ITD) was based on the MV4-11 ITD sequence. […] Viruses were transduced into the IL-3-dependent, murine macrophage cell line, Ba/F3, and selected for puromycin resistance and IL-3 independence. All cell lines were cloned by limiting dilution and clones were used for all subsequent cell assays.
Briefly, cell lines were serum starved overnight in media containing 0.5% FBS. Cells were plated at 200,000 cells/well in 96-well round bottom plates in low serum, and 3-fold serial dilutions of test compounds were added for 2 hours at 37° C. […] After an overnight incubation at 4° C. shaking at 450 rpm, plates were washed with MSD wash buffer, and captured FLT3 was detected with biotinylated-anti-phosphotyrosine antibody 4G10 (Millipore) and SulfoTAG-streptavidin (MSD) for 1 hour at room temperature, and read on an MSD SECTOR Imager 6000. Percent remaining phospho-FLT3 in compound-treated cells was normalized to DMSO-treated cells, and IC50s were determined using Igor Pro software. All compounds are assayed in duplicate cell and MSD plates.

Compound `O=C(Cc1ccc(-c2cnc3[nH]ncc3c2)cc1)Nc1cc(C2(C(F)(F)F)CC2)on1` [Example 15, 2-(4-(1H-pyrazolo[3,4-b]pyridin-5-yl)phenyl)-N-(5-(1-(trifluoromethyl)cyclopropyl)isoxazol-3-yl)acetamide] gave a Kd at KIT kinase of less than 5 nM. Further, the IC50 at FLT3-ITD is less than 10 nM.

As to `O=C(Cc1ccc(-c2cnc3[nH]ccc3c2)cc1)Nc1cc(C2(C(F)(F)F)CC2)on1` [Example 18, 2-(4-(1H-pyrrolo[2,3-b]pyridin-5-yl)phenyl)-N-(5-(1-(trifluoromethyl)cyclopropyl)isoxazol-3-yl)acetamide], on KIT kinase, the Kd was less than 5 nM. For the same compound, the IC50 on FLT3-ITD is less than 10 nM.

`CN(C)C(=O)c1n[nH]c2ncc(-c3ccc(CC(=O)Nc4cc(C(C)(C)C)on4)cc3)cc12` [Example 45, 5-(4-(2-((5-(tert-butyl)isoxazol-3-yl)amino)-2-oxoethyl)phenyl)-N,N-dimethyl-1H-pyrazolo[3,4-b]pyridine-3-carboxamide]: the IC50 on FLT3-ITD is less than 10 nM.

In the case of `COCCOc1n[nH]c2ncc(-c3ccc(CC(=O)Nc4cc(C(C)(C)C(F)(F)F)on4)cc3)cc12` [Example 47, 2-(4-(3-(2-methoxyethoxy)-1H-pyrazolo[3,4-b]pyridin-5-yl)phenyl)-N-(5-(1,1,1-trifluoro-2-methylpropan-2-yl)isoxazol-3-yl)acetamide], the IC50 at FLT3-ITD is less than 10 nM.

Consider `CC(C)(c1cc(NC(=O)Cc2ccc(-c3cnc4[nH]nc(OC5CCNCC5)c4c3)cc2)no1)C(F)(F)F` [Example 48, 2-(4-(3-(piperidin-4-yloxy)-1H-pyrazolo[3,4-b]pyridin-5-yl)phenyl)-N-(5-(1,1,1-trifluoro-2-methylpropan-2-yl)isoxazol-3-yl)acetamide formate salt], for which the 50% inhibitory concentration (IC50) on FLT3-ITD was less than 10 nM.

In the case of `CN(C)C(=O)c1cc2cc(-c3ccc(CC(=O)Nc4cc(C(C)(C)C)on4)cc3)cnc2[nH]1` [Example 49, 5-(4-(2-((5-(tert-butyl)isoxazol-3-yl)amino)-2-oxoethyl)phenyl)-N,N-dimethyl-1H-pyrrolo[2,3-b]pyridine-2-carboxamide], on FLT3-ITD, the IC50 is less than 10 nM.

For the compound `CC(C)(C)c1cc(NC(=O)Cc2ccc(-c3cnc4[nH]c(CO)cc4c3)cc2)no1` [Example 50, N-(5-(tert-butyl)isoxazol-3-yl)-2-(4-(2-(hydroxymethyl)-1H-pyrrolo[2,3-b]pyridin-5-yl)phenyl)acetamide], the 50% inhibitory concentration (IC50) on FLT3-ITD was less than 10 nM.

Consider `Cc1n[nH]c2ncc(-c3ccc(CC(=O)Nc4cc(C(C)(C)C)on4)c(F)c3)cc12` [Example 51, N-(5-(tert-butyl)isoxazol-3-yl)-2-(2-fluoro-4-(3-methyl-1H-pyrazolo[3,4-b]pyridin-5-yl)phenyl)acetamide], for which the IC50 on FLT3-ITD was less than 10 nM.

Regarding `CN(C)Cc1cc2cc(-c3ccc(CC(=O)Nc4cc(C(C)(C)C)on4)cc3)cnc2[nH]1` [Example 52, N-(5-(tert-butyl)isoxazol-3-yl)-2-(4-(2-((dimethylamino)methyl)-1H-pyrrolo[2,3-b]pyridin-5-yl)phenyl)acetamide], on FLT3-ITD, the IC50 is less than 10 nM.

For `COc1n[nH]c2ncc(-c3ccc(CC(=O)Nc4cc(C5(C(F)(F)F)CC5)on4)c(F)c3)cc12` [Example 53, 2-(2-fluoro-4-(3-methoxy-1H-pyrazolo[3,4-b]pyridin-5-yl)phenyl)-N-(5-(1-(trifluoromethyl)cyclopropyl)isoxazol-3-yl)acetamide], the IC50 on FLT3-ITD was less than 10 nM.

Turning to `CNCc1c[nH]c2ncc(-c3ccc(CC(=O)Nc4cc(C(C)(C)C)on4)cc3)cc12` [Example 54, N-(5-(tert-butyl)isoxazol-3-yl)-2-(4-(3-((methylamino)methyl)-1H-pyrrolo[2,3-b]pyridin-5-yl)phenyl)acetamide], the IC50 on FLT3-ITD lay in the range of 10 to 20 nM.

For the compound `CC(C)(C)c1cc(NC(=O)Cc2ccc(-c3cnc4[nH]nc(CO)c4c3)cc2F)no1` [Example 55, N-(5-(tert-butyl)isoxazol-3-yl)-2-(2-fluoro-4-(3-(hydroxymethyl)-1H-pyrazolo[3,4-b]pyridin-5-yl)phenyl)acetamide], the IC50 at FLT3-ITD is less than 10 nM.

Take `O=C(Cc1ccc(-c2cnc3[nH]ncc3c2)cc1F)Nc1cc(C2(C(F)(F)F)CCC2)on1` [Example 56, 2-(2-Fluoro-4-(1H-pyrazolo[3,4-b]pyridin-5-yl)phenyl)-N-(5-(1-(trifluoromethyl)cyclobutyl)isoxazol-3-yl)acetamide]: at FLT3-ITD, the IC50 is less than 10 nM.

In the case of `CNCc1n[nH]c2ncc(-c3ccc(CC(=O)Nc4cc(C(C)(C)C)on4)c(F)c3)cc12` [Example 57, N-(5-(tert-butyl)isoxazol-3-yl)-2-(2-fluoro-4-(3-((methylamino)methyl)-1H-pyrazolo[3,4-b]pyridin-5-yl)phenyl)acetamide], the IC50 at FLT3-ITD was less than 10 nM.

In the case of `CN(C)Cc1n[nH]c2ncc(-c3ccc(CC(=O)Nc4cc(C(C)(C)C)on4)c(F)c3)cc12` [Example 58, N-(5-(tert-butyl)isoxazol-3-yl)-2-(4-(3-((dimethylamino)methyl)-1H-pyrazolo[3,4-b]pyridin-5-yl)-2-fluorophenyl)acetamide], the IC50 at FLT3-ITD was less than 10 nM.

Regarding `CN(C)Cc1c[nH]c2ncc(-c3ccc(CC(=O)Nc4cc(C(C)(C)C)on4)cc3)cc12` [Example 59, N-(5-(tert-butyl)isoxazol-3-yl)-2-(4-(3-((dimethylamino)methyl)-1H-pyrrolo[2,3-b]pyridin-5-yl)phenyl)acetamide formate salt], on FLT3-ITD, the IC50 is less than 10 nM.

As to `CC(C)(C)c1cc(NC(=O)Cc2ccc(-c3cnc4[nH]cc(CO)c4c3)cc2)no1` [Example 60, N-(5-(tert-butyl)isoxazol-3-yl)-2-(4-(3-(hydroxymethyl)-1H-pyrrolo[2,3-b]pyridin-5-yl)phenyl)acetamide], on FLT3-ITD, the half-maximal inhibitory concentration (IC50) was less than 10 nM.

Take `CN(C)c1n[nH]c2ncc(-c3ccc(CC(=O)Nc4cc(C5(C(F)(F)F)CC5)on4)c(F)c3)cc12` [Example 61, 2-(4-(3-(dimethylamino)-1H-pyrazolo[3,4-b]pyridin-5-yl)-2-fluorophenyl)-N-(5-(1-(trifluoromethyl)cyclopropyl)isoxazol-3-yl)acetamide]: at FLT3-ITD, the IC50 is less than 10 nM.

In the case of `CC(C)(C)c1cc(NC(=O)Cc2ccc(-c3cnc4[nH]ccc4c3)cc2)on1` [Example 71, 2-(4-(1H-pyrrolo[2,3-b]pyridin-5-yl)phenyl)-N-(3-(tert-butyl)isoxazol-5-yl)acetamide], the IC50 on FLT3-ITD was less than 10 nM.

For the compound `COc1cc2ncc(-c3ccc(CC(=O)Nc4cc(C5(C(F)(F)F)CC5)no4)cc3)nc2cc1OC` [Example 72, 2-(4-(6,7-dimethoxyquinoxalin-2-yl)phenyl)-N-(3-(1-(trifluoromethyl)cyclopropyl)isoxazol-5-yl)acetamide], the IC50 at FLT3-ITD was less than 10 nM.

For the compound `COc1cc2ncc(-c3ccc(CC(=O)Nc4cc(C(C)(C)C)no4)cc3)nc2cc1OC` [Example 73, N-(3-(tert-butyl)isoxazol-5-yl)-2-(4-(6,7-dimethoxyquinoxalin-2-yl)phenyl)acetamide], the half-maximal inhibitory concentration (IC50) on FLT3-ITD was less than 10 nM.

Regarding `COc1cc2nc(-c3ccc(CC(=O)Nc4cc(C5(C(F)(F)F)CC5)on4)c(F)c3)cnc2cc1OC1CNC1` [Example 89, 2-(4-(6-(azetidin-3-yloxy)-7-methoxyquinoxalin-2-yl)-2-fluorophenyl)-N-(5-(1-(trifluoromethyl)cyclopropyl)isoxazol-3-yl)acetamide], the Kd on KIT kinase lay in the range of 5 to 20 nM. For the same compound, the IC50 at FLT3-ITD is less than 10 nM.

For the origin of these results see patent US9725465B2, “Biaryl acetamide compounds and methods of use thereof” (Ambit Biosciences Corporation, priority 2013, dated 2017).
